Tests used:
[1] = target: T1, metabotropic glutamate receptor (mGluR5) (Homo sapiens, UniProt P41594); experiment: Cytosolic Calcium studies with stably transfected cells (FLIPR, CHO-K1); format: cell-based; parameters: expressed in transfected cells; host or cells: CHO-K1 cells, IPTG-inducible expression; details: CHO-K1 cells expressing human mGluR5; agonist L-quisqualic acid at ~80% of maximal signal; read-out: mGluR5_FLIPR_h_CHO_NAM IC50
Protocol: Functional Assays of mGluR5 Receptors
Cytosolic Calcium studies with stably transfected cells:
Chinese hamster ovary cells (CHO-K1 cells), stably transfected for inducible expression of a human metabotropic glutamate receptor mGluR5, are seeded into black clear bottom 96 well plates at a density of 35.000 cells per well. The standard growth medium used (Dulbecco's modified Eagle Medium, DMEM plus L-proline) contains the appropriate inducer isopropyl-β-D-thiogalactopyranosid (IPTG) to achieve optimal receptor expression. One day after seeding the growth medium is exchanged for reconstituted Ca-Kit (Molecular Devices, USA) and incubated for one hour. Ca-Kit is reconstituted in an assay buffer containing 20 mM HEPES pH 7.4, glutamic-pyruvate transaminase, pyridoxal phosphate and sodium pyruvate in Hank's balanced salt solution (HBBS). Agonistic compounds to the receptor elicit increases in cytosolic calcium which can be measured as increases in fluorescence signals by use of a fluorescence imaging plate reader (Molecular Devices).
(§1) The fluorescence signal increase after addition of agonist reflects the increase of cytosolic calcium. Inconsistencies in the amount of cells per well are normalised by using the spatial uniformity correction of the FLIPR software. The mean of replicated temporal data (n=3-5) is calculated and used for graphical representation. For the evaluation of the pharmacology, the calcium changes in response to different concentrations of agonist or antagonist are determined using a maximum minus minimum (MaxMin) calculation.
(§2) All responses (RFU-values) are determined as percentage of control (=maximum response). EC50 and IC50 are calculated according the logistic equation using GraFit 5.0 (Erithacus Software, GB) or Prism 4.0 (GraphPad Software, USA). The compounds of the present invention have a potency (IC50) within a range of about […].

mGluR5 receptors = target: T2, mGluR5 receptors (Rattus norvegicus, UniProt P31424); experiment: Cytosolic Calcium studies with astrocytes (astrocyte culture test, FLIPR); format: cell-based; details: primary rat cortical astrocytes; L-quisqualate 100 nM; read-out: mGluR5_FLIPRr_rpA IC50
T2 construct: Primary astrocyte cultures are prepared from cortices of newborn rats; endogenous in cells; host or cells: primary cortical astrocytes of Sprague-Dawley rat pups (2-4 d old)
T2 sequence (P31424 21-1203): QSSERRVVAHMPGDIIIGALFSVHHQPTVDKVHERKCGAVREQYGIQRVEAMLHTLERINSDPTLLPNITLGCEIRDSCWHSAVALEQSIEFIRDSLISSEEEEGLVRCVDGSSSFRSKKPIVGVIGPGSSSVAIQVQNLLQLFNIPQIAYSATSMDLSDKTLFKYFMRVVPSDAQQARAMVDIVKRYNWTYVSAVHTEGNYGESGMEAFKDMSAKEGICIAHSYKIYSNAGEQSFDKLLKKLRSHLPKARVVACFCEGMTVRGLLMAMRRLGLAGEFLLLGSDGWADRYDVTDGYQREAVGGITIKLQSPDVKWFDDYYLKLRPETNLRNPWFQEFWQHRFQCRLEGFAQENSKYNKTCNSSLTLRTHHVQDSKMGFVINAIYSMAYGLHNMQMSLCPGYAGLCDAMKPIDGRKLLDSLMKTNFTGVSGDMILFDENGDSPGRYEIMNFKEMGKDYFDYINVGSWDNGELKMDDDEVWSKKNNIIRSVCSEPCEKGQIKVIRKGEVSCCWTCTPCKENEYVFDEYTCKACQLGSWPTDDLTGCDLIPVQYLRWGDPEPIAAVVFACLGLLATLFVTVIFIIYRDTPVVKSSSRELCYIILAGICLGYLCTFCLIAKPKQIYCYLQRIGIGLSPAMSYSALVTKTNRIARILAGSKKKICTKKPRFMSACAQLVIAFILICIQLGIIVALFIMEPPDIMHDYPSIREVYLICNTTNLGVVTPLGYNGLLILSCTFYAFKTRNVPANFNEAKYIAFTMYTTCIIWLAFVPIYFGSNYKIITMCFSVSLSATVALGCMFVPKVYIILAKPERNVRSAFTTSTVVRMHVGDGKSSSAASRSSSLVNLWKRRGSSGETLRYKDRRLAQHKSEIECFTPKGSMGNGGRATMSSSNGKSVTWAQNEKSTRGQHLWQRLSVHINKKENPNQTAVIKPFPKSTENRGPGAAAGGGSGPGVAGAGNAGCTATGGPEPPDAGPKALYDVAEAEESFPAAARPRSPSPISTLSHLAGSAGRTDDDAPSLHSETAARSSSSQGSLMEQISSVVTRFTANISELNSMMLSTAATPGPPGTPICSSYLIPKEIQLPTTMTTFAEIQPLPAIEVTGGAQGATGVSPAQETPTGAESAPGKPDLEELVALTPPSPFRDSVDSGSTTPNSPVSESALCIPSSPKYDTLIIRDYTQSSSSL
Protocol: Primary astrocyte cultures are prepared from cortices of newborn rats as described by Booher and Sensenbrenner (1972, Neurobiology 2(3):97-105). Briefly, Sprague-Dawley rat pups (2-4 d old) are decapitated and neocortices are dissected, disintegrated with a nylon filter (pore size 80 μm) and carefully triturated. The cell suspension is plated on poly-D-lysine pre-coated flasks (Costar, Netherlands) and cultivated in Dulbecco's Modified Eagle's Medium (DMEM, Invitrogen, Germany) supplemented with 10% foetal calf serum (FCS, Sigma, Germany), 4 mM glutamine and 50 μg/ml gentamycin (both Biochrom, Germany) at 37° C. in a humidified atmosphere of 5% CO2/95% air for 7 d with exchanging the medium at day 2 and 6.
After 7 days in vitro (DIV), cells are shaken overnight at 250 rpm to remove oligodendrocytes and microglia. The next day, astrocytes are rinsed twice with CMF-PBS (calcium- and magnesium-free phosphate buffered saline, Biochrom, Germany), trypsinized and subplated on poly-D-lysine pre-coated 96-well plates (Greiner, Germany) at a density of 40,000 cells/well. 24 h after establishing the secondary culture the astrocytes are rinsed with PBS^++ (phosphate buffered saline, Biochrom, Germany) and fed with astrocyte-defined medium (ADM) consisting of DMEM containing 1×G5-supplement (Invitrogen, Germany), 0.5 μg/ml heparan sulfate, and 1.5 μg/ml fibronectin (both Sigma, Germany) (Miller et al., (1993) Brain Res. 618(1):175-8). 3 d later the medium is exchanged and the cells incubated for another 2-3 d, so that at the time of experiments astrocytes are 14-15 DIV.
Cytosolic Calcium Studies with Astrocytes:
The increase of cytosolic calcium after stimulation with the mGluR5 agonist L-quisqualate is measured using a fluorometric imaging plate reader (FLIPR) and the Ca-Kit (both Molecular Devices). Prior to addition of agonist or antagonist the medium is aspirated and cells are loaded for 2 h at RT with 150 μl of loading buffer consisting of Ca-sensitive dye reconstituted in sodium chloride (123 mM), potassium chloride (5.4 mM), magnesium chloride (0.8 mM), calcium chloride (1.8 mM), D-glucose (15 mM), and HEPES (20 mM), pH 7.3. Subsequently, plates are transferred to FLIPR to detect calcium increase with the addition of L-quisqualate (100 nM) measured as relative fluorescence units (RFU). If antagonists are tested, these compounds are pre-incubated for 10 minutes at RT before addition of the respective agonist.
as §1, §2

[2] = target: T3, transmembrane allosteric modulatory sites of mGluR5 receptors in cortical membranes (Rattus norvegicus, UniProt P31424); experiment: [3H]-MMPEP binding assay in rat cortical membranes; details: 3H-MMPEP radioligand, read-out: mGluR5_M_MPEP_r_CTX_IC50
T3 construct: from tissue; host or cells: cortex of male Sprague-Dawley rats, membrane preparation
T3 sequence (P31424 21-1203): as above
Protocol: Binding Assays for the Characterization of mGluR5 Antagonists
Preparation of Rat Cortical Membranes:
Male Sprague-Dawley rats (200-250 g) are decapitated and their brains are removed rapidly. The cortex is dissected and homogenized in 20 volumes of ice-cold 0.32 M sucrose using a glass-Teflon homogenizer. The homogenate is centrifuged at 1000×g for 10 minutes. The pellet is discarded and the supernatant centrifuged at 20,000×g for 20 minutes. The resulting pellet is re-suspended in 20 volumes of distilled water and centrifuged for 20 minutes at 8000×g. Then the supernatant and the buffy coat are centrifuged at 48,000×g for 20 minutes in the presence of 50 mM Tris-HCl, pH 8.0. The pellet is then re-suspended and centrifuged two to three more times at 48,000×g for 20 minutes in the presence of 50 mM Tris-HCl, pH 8.0. All centrifugation steps are carried out at 4° C. After resuspension in 5 volumes of 50 mM Tris-HCl, pH 8.0 the membrane suspension is frozen rapidly at −80° C.
On the day of assay the membranes are thawed and washed four times by resuspension in 50 mM Tris-HCl, pH 8.0 and centrifugation at 48,000×g for 20 minutes and finally re-suspended in 50 mM Tris-HCl, pH 7.4. The amount of protein in the final membrane preparation (500-700 μg/ml) is determined according to the method of Lowry (Lowry O. H. et al. 1951. J. Biol. Chem. 193, 256-275).
Incubations are started by adding[^3H]-MPEP (50.2 Ci/mmol, 5 nM, Tocris, GB) to vials with 125-250 μg protein (total volume 0.25 ml) and various concentrations of the agents.
Alternatively, assays are performed with [^3H]-MMPEP (2-(3-methoxyphenylethynyl)-6-methylpyridine hydrochloride) as radioligand. The incubations are continued at room temperature for 60 minutes (equilibrium is achieved under the conditions used). […] Incubations are terminated using a Millipore filter system. The samples are rinsed twice with 4 ml of ice-cold assay buffer over glass fibre filters (Schleicher & Schuell, Germany) under a constant vacuum. Following separation and rinse, the filters are placed into scintillation liquid (5 ml Ultima Gold, Perkin Elmer, Germany) and radioactivity retained on the filters is determined with a conventional liquid scintillation counter (Can berra Packard, Germany).

[3] = target: T1, metabotropic glutamate receptor (mGluR5); experiment: Activity as mGluR5 modulator of prior-art compounds (test not described); details: result in words

T1 sequence (P41594 21-1212): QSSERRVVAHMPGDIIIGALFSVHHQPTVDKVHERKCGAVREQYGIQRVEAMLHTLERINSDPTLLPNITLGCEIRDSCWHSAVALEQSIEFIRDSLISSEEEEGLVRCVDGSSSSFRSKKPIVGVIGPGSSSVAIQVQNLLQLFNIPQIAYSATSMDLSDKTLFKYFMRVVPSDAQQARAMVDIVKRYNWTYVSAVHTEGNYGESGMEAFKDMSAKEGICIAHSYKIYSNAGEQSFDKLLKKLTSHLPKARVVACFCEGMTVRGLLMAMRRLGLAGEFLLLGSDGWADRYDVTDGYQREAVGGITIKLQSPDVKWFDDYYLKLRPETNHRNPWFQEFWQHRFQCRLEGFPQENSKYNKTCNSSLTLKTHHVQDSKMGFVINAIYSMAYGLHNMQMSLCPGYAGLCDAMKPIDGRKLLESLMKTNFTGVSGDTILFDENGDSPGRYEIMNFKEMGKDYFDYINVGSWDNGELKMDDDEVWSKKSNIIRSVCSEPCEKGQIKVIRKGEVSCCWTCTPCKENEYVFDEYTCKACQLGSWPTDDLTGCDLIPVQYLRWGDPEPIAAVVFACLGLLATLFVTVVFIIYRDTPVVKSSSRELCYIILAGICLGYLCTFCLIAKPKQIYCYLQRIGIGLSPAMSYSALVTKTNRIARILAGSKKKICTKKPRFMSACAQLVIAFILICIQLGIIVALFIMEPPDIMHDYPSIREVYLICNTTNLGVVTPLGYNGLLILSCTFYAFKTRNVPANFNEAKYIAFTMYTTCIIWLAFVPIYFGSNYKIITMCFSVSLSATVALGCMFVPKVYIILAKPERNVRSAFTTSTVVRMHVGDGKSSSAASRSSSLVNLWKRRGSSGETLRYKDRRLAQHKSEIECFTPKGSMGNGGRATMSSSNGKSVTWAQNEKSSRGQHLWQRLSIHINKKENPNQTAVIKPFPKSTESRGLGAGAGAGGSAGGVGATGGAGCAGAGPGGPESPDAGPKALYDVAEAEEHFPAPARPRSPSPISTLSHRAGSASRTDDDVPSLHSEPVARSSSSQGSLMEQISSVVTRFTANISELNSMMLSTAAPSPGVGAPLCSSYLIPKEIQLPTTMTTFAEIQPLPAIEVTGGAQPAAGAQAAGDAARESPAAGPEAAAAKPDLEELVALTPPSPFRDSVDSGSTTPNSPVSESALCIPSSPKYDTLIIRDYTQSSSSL

| Compound | IC50 [1] | IC50 (mGluR5 receptors) | IC50 [2] | activity as metabotropic glutamate receptor (mGluR5) modulator [3] | selectivity [3] |
| --- | --- | --- | --- | --- | --- |
| CC1c2ccc(Cl)n2CCN1C(=O)c1cc2ncc(Cl)cn2n1 (stereo not drawn) [Example 29, (6-Chloro-1-methyl-3,4-dihydro-1H-pyrrolo[1,2-a]pyrazin-2-yl)-(6-chloro-pyrazolo[1,5-a]pyrimidin-2-yl)-methanone] | 91 nM | 21.9 nM | 42 nM | – | – |
| Cc1ccc2n1CCN(C(=O)c1cc3ncc(Cl)cn3n1)C2C (stereo not drawn) [Example 5, (6-Chloro-pyrazolo[1,5-a]pyrimidin-2-yl)-(1,6-dimethyl-3,4-dihydro-1H-pyrrolo[1,2-a]pyrazin-2-yl)-methanone] | 327 nM | 87.3 nM | 274 nM | – | – |
| CN1c2ccccc2CCN1C(=O)c1cc2ncc(Cl)cn2n1 [Example 181, (6-Chloro-pyrazolo[1,5-a]pyrimidin-2-yl)-(1-methyl-3,4-dihydro-1H-cinnolin-2-yl)-methanone] | 166 nM | 82.3 nM | 247 nM | – | – |
| CN1c2ccccc2CCN1C(=O)c1cc2ncc(Br)cn2n1 [Example 182, (6-Bromo-pyrazolo[1,5-a]pyrimidin-2-yl)-(1-methyl-3,4-dihydro-1H-cinnolin-2-yl)-methanone] | 189 nM | 63.7 nM | 281 nM | – | – |
| Cc1ccc2n1CCN(C(=O)c1cc3ncc(Br)cn3n1)[C@@H]2C [(R)-(6-Bromo-pyrazolo[1,5-a]pyrimidin-2-yl)-(1,6-dimethyl-3,4-dihydro-1H-pyrrolo[1,2-a]pyrazin-2-yl)-methanone] | 118 nM | 34.3 nM | 74 nM | – | – |
| O=C(c1cc2ncc(Br)cn2n1)N1CCCCC1 [Example B308, (6-Bromopyrazolo[1,5-a]pyrimidin-2-yl)-piperidin-1-yl-methanone] | – | – | – | no particular activity | – |
| O=C(c1cc2ncc(Br)cn2n1)N1CCOCC1 [Example B310, (6-Bromopyrazolo[1,5-a]pyrimidin-2-yl)-morpholin-4-yl-methanone] | – | – | – | no particular activity | – |
| CC1c2ccc(Br)n2CCN1C(=O)c1cc2ncc(Br)cn2n1 (stereo not drawn) [Example 39, (6-Bromo-1-methyl-3,4-dihydro-1H-pyrrolo[1,2-a]pyrazin-2-yl)-(6-bromo-pyrazolo[1,5-a]pyrimidin-2-yl)-methanone] | 74.5 nM | 15 nM | 54.9 nM | – | – |

The next lines start with the values.

| IC50 [1] | IC50 (mGluR5 receptors) | IC50 [2] | activity as metabotropic glutamate receptor (mGluR5) modulator [3] | selectivity [3] | Compound |
| --- | --- | --- | --- | --- | --- |
| 84.4 nM | 22.5 nM | 44.5 nM | – | – | CC1c2ccc(Cl)n2CCN1C(=O)c1cc2ncc(Br)cn2n1 (stereo not drawn) [Example 31, (6-Chloro-1-methyl-3,4-dihydro-1H-pyrrolo[1,2-a]pyrazin-2-yl)-(6-bromo-pyrazolo[1,5-a]pyrimidin-2-yl)-methanone] |
| 24.5 nM | 7.8 nM | – | – | – | C[C@@H]1c2ccc(Cl)n2CCN1C(=O)c1cc2ncc(Br)cn2n1 [(R)-(6-Bromo-pyrazolo[1,5-a]pyrimidin-2-yl)-(6-chloro-1-methyl-3,4-dihydro-1H-pyrrolo[1,2-a]pyrazin-2-yl)-methanone] |
| 222 nM | 50 nM | 219 nM | – | – | Cc1ccc2n1CCN(C(=O)c1cc3ncc(Br)cn3n1)C2C (stereo not drawn) [Example 7, (6-Bromo-pyrazolo[1,5-a]pyrimidin-2-yl)-(1,6-dimethyl-3,4-dihydro-1H-pyrrolo[1,2-a]pyrazin-2-yl)-methanone] |
| – | – | – | only a limited activity | not selective | O=C(c1cc2ncc(Br)cn2n1)N1CCc2ccccc2C1 [M, (6-Bromo-pyrazolo[1,5-a]pyrimidin-2-yl)-(1,2,3,4-tetrahydro-isoquinolin-2-yl)-methanone] |
| 34.2 nM | 17 nM | 73 nM | – | – | CC1c2ccc(Br)n2CCN1C(=O)c1cc2ncc(Cl)cn2n1 (stereo not drawn) [Example 37, (6-Bromo-1-methyl-3,4-dihydro-1H-pyrrolo[1,2-a]pyrazin-2-yl)-(6-chloro-pyrazolo[1,5-a]pyrimidin-2-yl)-methanone] |

— patent US20110003820A1, “PYRAZOLOPYRIMIDINES, A PROCESS FOR THEIR PREPARATION AND THEIR USE AS MEDICINE” (MERZ PHARMA GMBH & CO. KGaA, priority 2008, published 2011)
